From PubChem BioAssay (NCI)
Where “and” joins values, the source holds several entries; their conditions need not be identical. Identical values can stand only once.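 Cultured in 96-well plates, cells were exposed to test compound for 48 hours across five concentrations. At the TGI there is no net growth.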

Assays:
Assay in all cases: DTP human tumour cell line panel, 48 h
RXF 393 renal = system: RXF 393 renal
MDA-MB-231 breast = system: MDA-MB-231 breast
CCRF-CEM leukemia = system: CCRF-CEM leukemia
HOP-62 NSCLC = system: HOP-62 NSCLC
SW-620 colon = system: SW-620 colon
HS 578T breast = system: HS 578T breast
OVCAR-4 ovarian = system: OVCAR-4 ovarian
A498 renal = system: A498 renal
RPMI-8226 leukemia = system: RPMI-8226 leukemia
BT-549 breast = system: BT-549 breast

With `COc1cc2cc(C(=O)N3CC(COS(C)(=O)=O)c4ccc(O)cc43)[nH]c2c(OC)c1OC` (configuration not stated) the TGI (RXF 393 renal) was under 0.0001 µM, the TGI (MDA-MB-231 breast) was 0.000328 µM and the TGI (CCRF-CEM leukemia) was over 100 µM. The TGI (HOP-62 NSCLC) was 0.00198 µM, the TGI (SW-620 colon) was 0.111 µM and 0.0118 µM and the TGI (HS 578T breast) was 0.000872 µM.

Compound `COc1cc(C2C3=C(COC3=O)Oc3cc4c(cc32)OCO4)cc(OC)c1O` (configuration not stated) has a TGI (OVCAR-4 ovarian) of 47.8 µM, a TGI (MDA-MB-231 breast) of over 24.9 µM and a TGI (A498 renal) of 6.75 µM. It also gave a TGI (CCRF-CEM leukemia) of over 66.9 µM, a TGI (RPMI-8226 leukemia) of over 41.9 µM and a TGI (HOP-62 NSCLC) of 15.2 µM. For the same compound, the TGI (SW-620 colon) was over 100 µM and the TGI (BT-549 breast) was over 100 µM.

With `NNC(=O)C1(NC(=O)c2ccccc2)C(c2ccccc2)C(c2ccccc2)=NN1c1ccccc1` (configuration not stated) the TGI (RXF 393 renal) was 53.4 µM, the TGI (OVCAR-4 ovarian) was over 100 µM and the TGI (MDA-MB-231 breast) was over 100 µM. It also gave a TGI (A498 renal) of over 100 µM, a TGI (CCRF-CEM leukemia) of 98.4 µM and a TGI (RPMI-8226 leukemia) of over 100 µM. The TGI (HOP-62 NSCLC) was over 100 µM, the TGI (SW-620 colon) was over 100 µM and the TGI (BT-549 breast) was over 100 µM.

`COc1ccc(-c2oc3cc(O)cc(O)c3c(=O)c2OC)cc1` showed a TGI (OVCAR-4 ovarian) of over 100 µM, a TGI (MDA-MB-231 breast) of over 100 µM and a TGI (A498 renal) of 66.8 µM. It also gave a TGI (CCRF-CEM leukemia) of over 100 µM, a TGI (RPMI-8226 leukemia) of 69.2 µM and a TGI (HOP-62 NSCLC) of over 100 µM. For the same compound, the TGI (SW-620 colon) was over 100 µM.

`NCc1cccc(O)c1O` gave a TGI (RXF 393 renal) of over 100 µM, a TGI (OVCAR-4 ovarian) of over 100 µM and a TGI (A498 renal) of over 100 µM. It also gave a TGI (CCRF-CEM leukemia) of over 100 µM, a TGI (RPMI-8226 leukemia) of over 100 µM and a TGI (HOP-62 NSCLC) of over 100 µM. For the same compound, the TGI (SW-620 colon) was over 100 µM.

With `CC(C)=CCNc1nc(Cl)nc2nc[nH]c12` the TGI (RXF 393 renal) was 62 µM, the TGI (OVCAR-4 ovarian) was over 100 µM and the TGI (MDA-MB-231 breast) was 68.2 µM. For the same compound, the TGI (A498 renal) was over 100 µM, the TGI (CCRF-CEM leukemia) was over 100 µM and the TGI (RPMI-8226 leukemia) was over 100 µM. For the same compound, the TGI (HOP-62 NSCLC) was 79.2 µM, the TGI (SW-620 colon) was over 100 µM and the TGI (HS 578T breast) was over 100 µM.

`Cc1ccccc1N=C(N)Nc1ccccc1C` showed a TGI (RXF 393 renal) of over 100 µM, a TGI (OVCAR-4 ovarian) of over 100 µM and a TGI (MDA-MB-231 breast) of over 100 µM. It also gave a TGI (A498 renal) of over 100 µM, a TGI (CCRF-CEM leukemia) of over 100 µM and a TGI (RPMI-8226 leukemia) of over 100 µM. The TGI (HOP-62 NSCLC) was over 100 µM, the TGI (SW-620 colon) was over 100 µM and the TGI (HS 578T breast) was over 100 µM.

With `CN=C(/N=c1\ssc(=NC)n1C)N(C)C` the TGI (RXF 393 renal) was over 100 µM, the TGI (OVCAR-4 ovarian) was over 100 µM and the TGI (A498 renal) was over 100 µM. For the same compound, the TGI (RPMI-8226 leukemia) was over 100 µM and the TGI (SW-620 colon) was over 100 µM.

In the case of `COC[C@@H](N=Cc1ccc([N+](=O)[O-])cc1)C(C)C`, the TGI (RXF 393 renal) is reported as over 100 µM, the TGI (OVCAR-4 ovarian) is reported as over 100 µM and the TGI (MDA-MB-231 breast) is reported as over 100 µM. For the same compound, the TGI (CCRF-CEM leukemia) was over 100 µM, the TGI (RPMI-8226 leukemia) was over 100 µM and the TGI (SW-620 colon) was over 100 µM. It also gave a TGI (HS 578T breast) of over 100 µM.

Work on `Cc1cc(OC(=O)NCn2cc(-c3ccccc3)nn2)ccc1Cl` yielded a TGI (OVCAR-4 ovarian) of over 100 µM, a TGI (MDA-MB-231 breast) of over 100 µM and a TGI (CCRF-CEM leukemia) of over 100 µM. For the same compound, the TGI (RPMI-8226 leukemia) was over 100 µM, the TGI (HOP-62 NSCLC) was over 100 µM and the TGI (SW-620 colon) was over 100 µM. It also gave a TGI (BT-549 breast) of over 100 µM.

Work on `COc1ccc(OC)c(SC(CC(=O)c2ccccc2)c2ccccc2)c1` (configuration not stated) yielded a TGI (RXF 393 renal) of 31.1 µM, a TGI (OVCAR-4 ovarian) of over 100 µM and a TGI (MDA-MB-231 breast) of 25.7 µM. The TGI (CCRF-CEM leukemia) was over 100 µM, the TGI (HOP-62 NSCLC) was 39.8 µM and the TGI (SW-620 colon) was 12.2 µM. For the same compound, the TGI (HS 578T breast) was 68.3 µM.

In the case of `C=CCC1C(O[Si](C)(C)C(C)(C)C)C(CO[Si](C)(C)C(C)(C)C)OC1n1ccc(=O)[nH]c1=O` (configuration not stated), the TGI (MDA-MB-231 breast) is reported as 4.52 µM, the TGI (A498 renal) is reported as 3.68 µM and the TGI (CCRF-CEM leukemia) is reported as 2.86 µM. The TGI (RPMI-8226 leukemia) was 4.89 µM, the TGI (SW-620 colon) was 2.84 µM and the TGI (BT-549 breast) was 3.42 µM.

For `C=CCP(=O)(CC=C)C(Cl)Cl`, the TGI (OVCAR-4 ovarian) was over 100 µM, the TGI (MDA-MB-231 breast) was over 100 µM and the TGI (CCRF-CEM leukemia) was over 100 µM. It also gave a TGI (RPMI-8226 leukemia) of over 100 µM, a TGI (HOP-62 NSCLC) of over 100 µM and a TGI (SW-620 colon) of over 100 µM. The TGI (HS 578T breast) was over 100 µM.

`COc1cccc(N[C@@H]2c3cc4c(cc3C(c3cc(OC)c(O)c(OC)c3)[C@H]3C(=O)OCC32)OCO4)c1` (some centres not stated) gave a TGI (RXF 393 renal) of 7.12 µM, a TGI (OVCAR-4 ovarian) of 87.9 µM and a TGI (A498 renal) of 2.1 µM. It also gave a TGI (CCRF-CEM leukemia) of 2.69 µM, a TGI (RPMI-8226 leukemia) of 2.08 µM and a TGI (HOP-62 NSCLC) of 0.671 µM. The TGI (SW-620 colon) was over 43.2 µM.

For `Cn1c(-c2ccc(/C=N/NC(=S)N/N=C/c3ccc(-c4c[n+]5ccsc5n4C)cc3)cc2)c[n+]2ccsc12`, the TGI (OVCAR-4 ovarian) was over 100 µM, the TGI (MDA-MB-231 breast) was over 100 µM and the TGI (CCRF-CEM leukemia) was over 100 µM. It also gave a TGI (RPMI-8226 leukemia) of over 100 µM, a TGI (HOP-62 NSCLC) of over 100 µM and a TGI (SW-620 colon) of over 100 µM. For the same compound, the TGI (HS 578T breast) was over 100 µM.

For `COc1cc(C2C(Cl)C(=O)N2c2c(C)n(C)n(-c3ccccc3)c2=O)ccc1O` (configuration not stated), the TGI (RXF 393 renal) was 33.6 µM, the TGI (OVCAR-4 ovarian) was 37.6 µM and the TGI (MDA-MB-231 breast) was 49.1 µM. For the same compound, the TGI (CCRF-CEM leukemia) was 79.7 µM, the TGI (RPMI-8226 leukemia) was 50.1 µM and the TGI (HOP-62 NSCLC) was 73.2 µM. It also gave a TGI (SW-620 colon) of 36.4 µM and a TGI (BT-549 breast) of 45 µM.

`Cn1c(=O)oc2nc(-c3ccccc3)cc(C(F)(F)F)c21` showed a TGI (OVCAR-4 ovarian) of over 100 µM, a TGI (MDA-MB-231 breast) of over 100 µM and a TGI (A498 renal) of 55.7 µM. It also gave a TGI (RPMI-8226 leukemia) of over 100 µM, a TGI (HOP-62 NSCLC) of over 100 µM and a TGI (SW-620 colon) of over 100 µM. For the same compound, the TGI (BT-549 breast) was over 100 µM.

For `Nc1nc(Cl)cc(NC23CC4CC(CC(C4)C2)C3)n1`, the TGI (RXF 393 renal) was over 100 µM, the TGI (OVCAR-4 ovarian) was over 100 µM and the TGI (MDA-MB-231 breast) was over 100 µM. The TGI (A498 renal) was over 100 µM, the TGI (CCRF-CEM leukemia) was over 100 µM and the TGI (RPMI-8226 leukemia) was over 100 µM. The TGI (HOP-62 NSCLC) was over 100 µM, the TGI (SW-620 colon) was over 100 µM and the TGI (BT-549 breast) was over 100 µM.

Compound `O=c1oc(C(C(F)(F)F)C(F)(F)F)nc2ccccc12` has a TGI (RXF 393 renal) of over 100 µM, a TGI (OVCAR-4 ovarian) of over 100 µM and a TGI (MDA-MB-231 breast) of over 100 µM. For the same compound, the TGI (A498 renal) was over 100 µM, the TGI (CCRF-CEM leukemia) was over 100 µM and the TGI (RPMI-8226 leukemia) was over 100 µM. For the same compound, the TGI (HOP-62 NSCLC) was over 100 µM and the TGI (SW-620 colon) was over 100 µM.

Compound `COc1ccc(Nc2ccc3ccccc3c2-c2c(O)ccc3ccccc23)cc1` has a TGI (RXF 393 renal) of 49.8 µM, a TGI (OVCAR-4 ovarian) of 41.9 µM and a TGI (MDA-MB-231 breast) of 45.7 µM. For the same compound, the TGI (CCRF-CEM leukemia) was 46.8 µM, the TGI (RPMI-8226 leukemia) was 27.4 µM and the TGI (HOP-62 NSCLC) was 25.1 µM. It also gave a TGI (SW-620 colon) of 28.2 µM and a TGI (BT-549 breast) of 52 µM.

`C=CC[n+]1c2ccccc2n2cc([N+](=O)[O-])ccc21` gave a TGI (RXF 393 renal) of over 100 µM, a TGI (OVCAR-4 ovarian) of over 100 µM and a TGI (MDA-MB-231 breast) of over 100 µM. It also gave a TGI (A498 renal) of 55 µM, a TGI (CCRF-CEM leukemia) of 55.3 µM and a TGI (HOP-62 NSCLC) of over 100 µM. It also gave a TGI (SW-620 colon) of over 100 µM.

`CC1(C)CC2(CC(C)(C)N1O)NC(=O)OC2=O` showed a TGI (RXF 393 renal) of over 100 µM, a TGI (OVCAR-4 ovarian) of over 100 µM and a TGI (A498 renal) of over 100 µM. The TGI (CCRF-CEM leukemia) was over 100 µM, the TGI (RPMI-8226 leukemia) was over 100 µM and the TGI (HOP-62 NSCLC) was over 100 µM. The TGI (SW-620 colon) was over 100 µM.
